From patent publication US20230310428A1, “EGFR INHIBITOR AND PREPARATION METHOD AND USE THEREOF” (HONGYUN BIOTECH CO., LTD., priority 2020, published 2023)
Read-outs that look alike come from different tables or passages of the source.

Experiments:
Test in all cases: Growth inhibitory activity of compounds on BaF3 cell lines stably transfected with kinase (MTS, 48 h)
Type in all cases: cell-based
[1] = molecular target: T1, various mutants of kinase EGFR (BaF3 cell lines stably transfected with kinase) (Homo sapiens, UniProt P00533, T790M, form not given)
T1 construct: other: BaF3 cells stably transfected with EGFR Δ19Del/T790M; MTS, 48 h; other: BaF3 cell line stably transfected with EGFR Δ19Del/T790M; MTS, 48
Procedure, shortened: (§1)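 First, cells were seeded and treated with an eight-point threefold dilution series starting at 10 µM (0.1% DMSO). After 48 h at 37 °C, MTS reagent was added for 1-4 h before absorbance at 490 nm. Inhibition rates gave the IC50.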

[2] = molecular target: T2, various mutants of kinase EGFR (BaF3 cell lines stably transfected with kinase) (Homo sapiens, UniProt P00533, C797S/L858R/T790M)
T2 construct: expressed in transfected cells; host or cells: BaF3
Procedure, shortened: as §1

[3] = molecular target: T3, various mutants of kinase EGFR (BaF3 cell lines stably transfected with kinase) (Homo sapiens, UniProt P00533, T790M/C797S, form not given)
T3 construct: other: BaF3 cells stably transfected with EGFR Δ19Del/T790M/C797S; MTS, 48; other: BaF3 cell line stably transfected with EGFR Δ19Del/T790M/C7
Procedure, shortened: as §1

[4] = molecular target: T4, various mutants of kinase EGFR (BaF3 cell lines stably transfected with kinase) (Homo sapiens, UniProt P00533, L858R/T790M)
T4 construct: expressed in transfected cells; host or cells: BaF3
Procedure, shortened: as §1

[5] = molecular target: T5, various mutants of kinase EGFR (BaF3 cell lines stably transfected with kinase) (Homo sapiens, UniProt P00533)
T5 construct: other: BaF3 cells stably transfected with EGFR Δ19Del; MTS, 48 h; other: BaF3 cell line stably transfected with EGFR Δ19Del
Procedure, shortened: as §1

[6] = molecular target: T6, various mutants of kinase EGFR (BaF3 cell lines stably transfected with kinase) (Homo sapiens, UniProt P00533, L858R)
T6 construct: expressed in transfected cells; host or cells: BaF3
Procedure, shortened: as §1

[7] = BaF3 cells stably transfected with EGFR Δ19Del/T790M, read-out: IC50, growth inhibition, Δ19Del/T790M
[8] = BaF3 cells stably transfected with EGFR L858R/T790M/C797S, read-out: IC50, growth inhibition, L858R/T790M/C797S
[9] = BaF3 cells stably transfected with EGFR Δ19Del/T790M/C797S, read-out: IC50, growth inhibition, Δ19Del/T790M/C797S
[10] = BaF3 cells stably transfected with EGFR L858R/T790M, read-out: IC50, growth inhibition, L858R/T790M
[11] = BaF3 cells stably transfected with EGFR Δ19Del, read-out: IC50, growth inhibition, Δ19Del
[12] = BaF3 cells stably transfected with EGFR L858R, read-out: IC50, growth inhibition, L858R
[13] = BaF3 cell line stably transfected with EGFR Δ19Del/T790M, read-out: Δ19Del/ T790M growth inhibitory activity IC50
[14] = BaF3 cell line stably transfected with EGFR L858R/T790M/C797S, read-out: L858R/T790M/ C797S growth inhibitory activity IC50
[15] = BaF3 cell line stably transfected with EGFR Δ19Del/T790M/C797S, read-out: Δ19Del/T790M/ C797S growth inhibitory activity IC50
[16] = BaF3 cell line stably transfected with EGFR L858R/T790M, read-out: L858R/ T790M growth inhibitory activity IC50
[17] = BaF3 cell line stably transfected with EGFR Δ19Del, read-out: Δ19Del growth inhibitory activity IC50
[18] = BaF3 cell line stably transfected with EGFR L858R, read-out: L858R growth inhibitory activity IC50

T3 sequence (P00533 with tags, fused parts or gaps DEL746-750/T790M/C797S, form open): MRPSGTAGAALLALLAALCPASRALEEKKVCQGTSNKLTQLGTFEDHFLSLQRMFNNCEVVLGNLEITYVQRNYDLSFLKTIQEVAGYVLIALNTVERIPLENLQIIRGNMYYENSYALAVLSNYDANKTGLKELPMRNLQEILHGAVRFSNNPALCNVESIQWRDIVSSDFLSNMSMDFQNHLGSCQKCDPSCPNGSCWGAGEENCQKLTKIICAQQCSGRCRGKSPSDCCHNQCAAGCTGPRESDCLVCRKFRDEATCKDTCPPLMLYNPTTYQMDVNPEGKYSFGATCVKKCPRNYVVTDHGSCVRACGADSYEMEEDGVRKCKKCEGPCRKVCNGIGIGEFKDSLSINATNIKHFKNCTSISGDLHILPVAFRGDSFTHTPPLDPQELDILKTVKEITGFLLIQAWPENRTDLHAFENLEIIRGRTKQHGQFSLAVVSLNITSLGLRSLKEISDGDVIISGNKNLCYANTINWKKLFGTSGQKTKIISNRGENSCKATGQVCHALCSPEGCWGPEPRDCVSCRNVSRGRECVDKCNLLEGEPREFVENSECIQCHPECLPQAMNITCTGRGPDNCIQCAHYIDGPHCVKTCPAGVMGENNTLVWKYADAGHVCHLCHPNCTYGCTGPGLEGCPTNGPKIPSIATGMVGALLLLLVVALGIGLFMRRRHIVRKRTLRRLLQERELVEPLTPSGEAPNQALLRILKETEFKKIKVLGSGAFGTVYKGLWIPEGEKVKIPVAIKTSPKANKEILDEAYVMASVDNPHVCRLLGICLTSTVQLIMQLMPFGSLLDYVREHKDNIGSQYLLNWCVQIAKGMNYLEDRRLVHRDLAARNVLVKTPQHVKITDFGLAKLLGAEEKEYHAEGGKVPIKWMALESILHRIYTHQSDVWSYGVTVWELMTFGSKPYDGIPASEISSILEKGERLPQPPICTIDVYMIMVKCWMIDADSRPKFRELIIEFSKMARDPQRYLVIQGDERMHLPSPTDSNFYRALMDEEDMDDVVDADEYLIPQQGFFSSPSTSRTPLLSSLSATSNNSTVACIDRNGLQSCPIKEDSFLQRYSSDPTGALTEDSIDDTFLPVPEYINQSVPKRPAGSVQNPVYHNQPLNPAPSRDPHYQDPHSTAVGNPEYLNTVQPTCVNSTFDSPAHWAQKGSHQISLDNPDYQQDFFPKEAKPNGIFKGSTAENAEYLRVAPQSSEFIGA
T6 sequence (P00533 25-1210 L858R): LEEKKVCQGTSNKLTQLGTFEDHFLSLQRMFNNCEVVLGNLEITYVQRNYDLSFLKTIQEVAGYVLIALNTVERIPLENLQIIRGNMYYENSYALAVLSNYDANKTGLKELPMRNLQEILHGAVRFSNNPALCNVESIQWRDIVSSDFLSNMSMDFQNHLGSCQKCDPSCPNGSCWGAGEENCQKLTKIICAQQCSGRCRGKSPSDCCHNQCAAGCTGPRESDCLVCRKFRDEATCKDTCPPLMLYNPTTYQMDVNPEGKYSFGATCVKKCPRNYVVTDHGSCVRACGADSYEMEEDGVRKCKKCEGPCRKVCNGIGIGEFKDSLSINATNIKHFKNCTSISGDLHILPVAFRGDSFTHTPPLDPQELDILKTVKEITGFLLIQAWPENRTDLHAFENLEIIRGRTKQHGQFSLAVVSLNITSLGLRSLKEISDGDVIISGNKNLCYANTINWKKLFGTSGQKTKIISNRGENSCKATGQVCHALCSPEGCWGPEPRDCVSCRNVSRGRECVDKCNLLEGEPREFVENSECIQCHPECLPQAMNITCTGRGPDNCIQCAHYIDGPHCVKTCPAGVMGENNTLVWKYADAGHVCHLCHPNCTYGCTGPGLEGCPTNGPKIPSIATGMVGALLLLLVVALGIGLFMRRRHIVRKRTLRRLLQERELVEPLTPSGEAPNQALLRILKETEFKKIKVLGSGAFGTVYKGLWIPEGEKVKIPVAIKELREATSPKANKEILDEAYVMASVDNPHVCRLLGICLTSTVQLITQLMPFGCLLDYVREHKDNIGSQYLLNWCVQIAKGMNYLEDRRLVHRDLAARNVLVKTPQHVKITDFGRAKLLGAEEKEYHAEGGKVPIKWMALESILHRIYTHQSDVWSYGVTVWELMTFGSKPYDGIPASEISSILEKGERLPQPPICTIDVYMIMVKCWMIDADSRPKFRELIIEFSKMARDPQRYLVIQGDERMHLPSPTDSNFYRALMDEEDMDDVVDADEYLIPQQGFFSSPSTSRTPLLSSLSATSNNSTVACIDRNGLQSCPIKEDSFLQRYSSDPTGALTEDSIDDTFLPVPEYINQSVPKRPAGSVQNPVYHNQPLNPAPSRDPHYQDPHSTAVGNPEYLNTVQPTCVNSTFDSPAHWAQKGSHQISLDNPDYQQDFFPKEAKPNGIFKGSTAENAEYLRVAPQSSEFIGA
T5 sequence (P00533 with tags, fused parts or gaps DEL746-750): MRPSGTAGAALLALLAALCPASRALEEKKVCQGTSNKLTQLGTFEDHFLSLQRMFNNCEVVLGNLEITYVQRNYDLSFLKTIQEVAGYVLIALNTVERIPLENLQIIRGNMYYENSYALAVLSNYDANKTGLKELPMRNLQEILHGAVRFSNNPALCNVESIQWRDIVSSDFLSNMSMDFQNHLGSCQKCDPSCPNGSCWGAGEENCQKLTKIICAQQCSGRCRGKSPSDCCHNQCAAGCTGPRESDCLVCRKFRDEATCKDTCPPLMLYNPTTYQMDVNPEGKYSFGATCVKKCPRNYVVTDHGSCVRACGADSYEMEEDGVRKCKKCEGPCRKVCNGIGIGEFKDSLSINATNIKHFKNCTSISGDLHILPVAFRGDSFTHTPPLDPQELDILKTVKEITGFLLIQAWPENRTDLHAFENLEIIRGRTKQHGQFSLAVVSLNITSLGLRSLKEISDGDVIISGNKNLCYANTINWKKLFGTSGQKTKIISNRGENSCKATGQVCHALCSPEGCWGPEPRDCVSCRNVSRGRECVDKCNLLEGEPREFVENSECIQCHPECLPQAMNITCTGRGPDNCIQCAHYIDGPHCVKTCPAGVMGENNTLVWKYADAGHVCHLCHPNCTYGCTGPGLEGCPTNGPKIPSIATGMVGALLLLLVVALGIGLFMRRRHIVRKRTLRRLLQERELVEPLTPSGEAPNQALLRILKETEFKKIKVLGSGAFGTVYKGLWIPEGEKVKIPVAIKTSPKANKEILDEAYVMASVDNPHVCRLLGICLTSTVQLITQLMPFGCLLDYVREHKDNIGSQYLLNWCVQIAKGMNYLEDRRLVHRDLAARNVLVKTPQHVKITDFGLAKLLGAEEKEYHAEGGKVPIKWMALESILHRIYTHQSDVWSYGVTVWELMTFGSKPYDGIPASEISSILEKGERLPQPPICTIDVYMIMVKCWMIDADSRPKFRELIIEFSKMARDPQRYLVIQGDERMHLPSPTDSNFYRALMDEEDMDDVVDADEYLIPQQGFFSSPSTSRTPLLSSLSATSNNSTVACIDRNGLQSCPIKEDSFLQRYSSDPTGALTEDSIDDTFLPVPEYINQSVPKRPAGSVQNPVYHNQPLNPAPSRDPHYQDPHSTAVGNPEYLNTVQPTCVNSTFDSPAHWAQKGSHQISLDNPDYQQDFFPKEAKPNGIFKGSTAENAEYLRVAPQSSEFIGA
T2 sequence (P00533 25-1210 T790M/C797S/L858R): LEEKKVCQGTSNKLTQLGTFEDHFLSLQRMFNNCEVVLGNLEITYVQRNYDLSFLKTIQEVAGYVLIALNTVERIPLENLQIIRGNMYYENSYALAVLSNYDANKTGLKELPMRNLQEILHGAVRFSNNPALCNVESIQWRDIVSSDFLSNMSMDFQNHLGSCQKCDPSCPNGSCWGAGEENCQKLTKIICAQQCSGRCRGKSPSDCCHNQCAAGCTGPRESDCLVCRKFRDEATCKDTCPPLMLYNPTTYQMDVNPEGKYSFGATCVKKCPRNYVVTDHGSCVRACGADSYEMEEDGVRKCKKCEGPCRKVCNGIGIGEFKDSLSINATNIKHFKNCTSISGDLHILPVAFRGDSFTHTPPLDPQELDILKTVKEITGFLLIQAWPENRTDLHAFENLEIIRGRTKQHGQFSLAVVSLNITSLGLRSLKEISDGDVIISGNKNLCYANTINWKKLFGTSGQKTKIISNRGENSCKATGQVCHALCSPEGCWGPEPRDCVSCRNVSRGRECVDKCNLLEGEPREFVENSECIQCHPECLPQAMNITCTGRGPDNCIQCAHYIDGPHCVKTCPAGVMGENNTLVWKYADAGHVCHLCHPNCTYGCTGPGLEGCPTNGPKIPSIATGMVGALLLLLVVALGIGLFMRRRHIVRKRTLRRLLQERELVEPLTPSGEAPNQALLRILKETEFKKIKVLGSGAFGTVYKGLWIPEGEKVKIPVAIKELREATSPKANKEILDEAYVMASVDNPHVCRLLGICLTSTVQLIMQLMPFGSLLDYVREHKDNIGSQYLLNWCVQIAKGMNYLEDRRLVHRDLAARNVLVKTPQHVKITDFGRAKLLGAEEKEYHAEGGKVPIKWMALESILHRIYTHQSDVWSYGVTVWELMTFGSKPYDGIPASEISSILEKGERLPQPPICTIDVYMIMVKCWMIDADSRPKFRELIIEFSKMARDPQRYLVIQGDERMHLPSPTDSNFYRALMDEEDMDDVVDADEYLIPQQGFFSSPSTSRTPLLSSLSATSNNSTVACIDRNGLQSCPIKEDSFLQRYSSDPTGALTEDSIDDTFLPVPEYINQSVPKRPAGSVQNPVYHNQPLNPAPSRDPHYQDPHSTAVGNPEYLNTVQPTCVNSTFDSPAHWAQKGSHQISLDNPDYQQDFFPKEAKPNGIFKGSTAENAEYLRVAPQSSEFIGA

SMILES	IC50 [1, 7] [nM]	IC50 [2, 8] [nM]	IC50 [3, 9] [nM]	IC50 [4, 10] [nM]	IC50 [5, 11] [nM]	IC50 [6, 12] [nM]	IC50 [1, 13] [nM]	IC50 [2, 14] [nM]	IC50 [3, 15] [nM]	IC50 [4, 16] [nM]	IC50 [5, 17] [nM]	IC50 [6, 18] [nM]
CN1CCN(c2ccc(Nc3ncc(Br)c(Nc4ccc5nccnc5c4N(C)S(C)(=O)=O)n3)cn2)CC1 [Compound I-56]	≤ 50	≤ 50	≤ 50	≤ 50	≤ 50	≤ 50	–	–	–	–	–	–
COc1cc(N2CCC(N3CCN(C)CC3)CC2)ccc1Nc1ncc(Br)c(Nc2ccc3nccnc3c2NS(C)(=O)=O)n1 [Compound I-401]	–	–	–	–	–	–	50 to 500	50 to 500	50 to 500	≤ 50	50 to 500	50 to 500
CCc1cc(Nc2ncc(Br)c(Nc3ccc4nccnc4c3N(C)S(=O)(=O)C(F)(F)F)n2)c(OC)cc1N1CCN(C)CC1 [Compound I-260]	50 to 500	50 to 500	≤ 50	50 to 500	500 to 2500	500 to 2500	–	–	–	–	–	–
CCc1cc(Nc2nc(Nc3ccc4nccnc4c3N(C)S(C)(=O)=O)c3sccc3n2)c(OC)cc1N1CCN(C)CC1 [II-1-15]	–	–	–	–	–	–	500 to 2500	50 to 500	50 to 500	500 to 2500	500 to 2500	500 to 2500
C=Cc1cc(Nc2ncc(F)c(Nc3ccc4nccnc4c3N(C)S(C)(=O)=O)n2)c(OC(F)(F)F)cc1N1CCC(N2CCN(C)CC2)CC1 [Compound I-180]	50 to 500	50 to 500	≤ 50	≤ 50	≤ 50	≤ 50	–	–	–	–	–	–
CN1CCN(C2CCN(c3cccc(Nc4ncc(Br)c(Nc5ccc6nccnc6c5N(C)S(C)(=O)=O)n4)c3)CC2)CC1 [Compound I-78]	50 to 500	≤ 50	50 to 500	≤ 50	50 to 500	50 to 500	–	–	–	–	–	–
CCN(c1c(Nc2nc(Nc3cc(N4CCC(O)CC4)ccc3OC)ncc2Br)ccc2nccnc12)S(C)(=O)=O [Compound I-378]	–	–	–	–	–	–	≤ 50	≤ 50	≤ 50	≤ 50	50 to 500	50 to 500
CCc1cc(Nc2ncc(Br)c(Nc3ccc4nccnc4c3N(C)S(=O)(=O)C(F)(F)F)n2)c(OC)cc1N1CCC(N2CCN(C)CC2)CC1 [Compound I-125]	50 to 500	50 to 500	≤ 50	50 to 500	500 to 2500	50 to 500	–	–	–	–	–	–
CCN(c1c(Nc2nc(Nc3cc(C)c(N4CCC(N(C)C)CC4)cc3OC)ncc2Br)ccc2nccnc12)S(C)(=O)=O [Compound I-299]	≤ 50	≤ 50	≤ 50	≤ 50	≤ 50	50 to 500	–	–	–	–	–	–
CCc1cc(Nc2ncc(F)c(Nc3ccc4nccnc4c3N(C)S(=O)(=O)C3CC3)n2)c(OC)cc1N1CCC(N(C)C)CC1 [Compound I-252]	50 to 500	50 to 500	≤ 50	≤ 50	≤ 50	≤ 50	–	–	–	–	–	–
Cc1cc(Nc2ncc(Br)c(Nc3ccc4nccnc4c3N(C)S(C)(=O)=O)n2)nn1C [Compound I-385]	–	–	–	–	–	–	500 to 2500	≤ 50	50 to 500	500 to 2500	500 to 2500	500 to 2500
CCc1cc(Nc2ncc([N+](=O)[O-])c(Nc3ccc4nccnc4c3N(C)S(C)(=O)=O)n2)c(OC)cc1N1CCC(N(C)C)CC1 [Compound I-193]	≤ 50	≤ 50	≤ 50	≤ 50	≤ 50	≤ 50	–	–	–	–	–	–
CCc1cc(Nc2nc(Nc3ccc4nccnc4c3N(C)S(C)(=O)=O)c3occc3n2)c(OC)nc1N1CCC(N2CCN(C)CC2)CC1 [II-1-39]	–	–	–	–	–	–	50 to 500	50 to 500	≤ 50	50 to 500	500 to 2500	500 to 2500
CCS(=O)(=O)N(C)c1c(Nc2nc(Nc3cc(CC4CC4)c(N4CCC(N5CCN(C)CC5)CC4)cc3OC)ncc2Cl)ccc2nccnc12 [Compound I-235]	≤ 50	50 to 500	≤ 50	≤ 50	50 to 500	50 to 500	–	–	–	–	–	–
COc1nc(N2CCC(N3CCN(C)CC3)CC2)ccc1Nc1ncc(Br)c(Nc2ccc3nccnc3c2N(C2CC2)S(C)(=O)=O)n1 [Compound I-305]	–	–	–	–	–	–	50 to 500	50 to 500	50 to 500	≤ 50	50 to 500	50 to 500
COc1cc(N2CCC(N(C)C)CC2)c(C)cc1Nc1ncc(C2CC2)c(Nc2ccc3nccnc3c2N(C)S(C)(=O)=O)n1 [Compound I-272]	≤ 50	≤ 50	≤ 50	≤ 50	≤ 50	≤ 50	–	–	–	–	–	–

Now from value to molecule:

IC50 [1, 7] [nM]	IC50 [2, 8] [nM]	IC50 [3, 9] [nM]	IC50 [4, 10] [nM]	IC50 [5, 11] [nM]	IC50 [6, 12] [nM]	IC50 [1, 13] [nM]	IC50 [2, 14] [nM]	IC50 [3, 15] [nM]	IC50 [4, 16] [nM]	IC50 [5, 17] [nM]	IC50 [6, 18] [nM]	SMILES
50 to 500	≤ 50	≤ 50	50 to 500	50 to 500	50 to 500	–	–	–	–	–	–	C=Cc1cc(Nc2ncc(C3CC3)c(Nc3ccc4nccnc4c3N(C)S(C)(=O)=O)n2)c(OC(F)(F)F)cc1N1CCC(N2CCN(C)CC2)CC1 [Compound I-271]
–	–	–	–	–	–	50 to 500	500 to 2500	50 to 500	500 to 2500	500 to 2500	500 to 2500	CCc1cc(Nc2nc(Nc3ccc4nccnc4c3N(C)S(C)(=O)=O)c3[nH]ccc3n2)c(OC)cc1N1CCN(C)CC1 [II-1-34]
50 to 500	≤ 50	≤ 50	≤ 50	50 to 500	50 to 500	–	–	–	–	–	–	CCN(c1c(Nc2nc(Nc3cc(CC4CC4)c(N4CCC(N5CCN(C)CC5)CC4)cc3OC)ncc2Cl)ccc2nccnc12)S(C)(=O)=O [Compound I-229]
–	–	–	–	–	–	≤ 50	50 to 500	≤ 50	≤ 50	50 to 500	50 to 500	COc1cc(N2CCC(N3CCN(C)CC3)CC2)c(CC2CC2)cc1Nc1ncc(Br)c(Nc2ccc3nccnc3c2N(C2CC2)S(C)(=O)=O)n1 [Compound I-308]
500 to 2500	50 to 500	50 to 500	500 to 2500	500 to 2500	500 to 2500	–	–	–	–	–	–	COc1cc(N2CCC(N(C)C)C2)c(C)cc1Nc1ncc(Cl)c(Nc2ccc3nccnc3c2N(C)S(=O)(=O)C(F)(F)F)n1 (stereo not drawn) [Compound I-268]
≤ 50	50 to 500	50 to 500	≤ 50	50 to 500	50 to 500	–	–	–	–	–	–	COc1cc(N2CCC(N3CCN(C)CC3)CC2)c(C2CC2)cc1Nc1ncc(C2CC2)c(Nc2ccc3nccnc3c2N(C)S(C)(=O)=O)n1 [Compound I-292]
–	–	–	–	–	–	500 to 2500	500 to 2500	500 to 2500	500 to 2500	500 to 2500	500 to 2500	COc1nc(N2CCC(N3CCN(C)CC3)CC2)ccc1Nc1nc(Nc2ccc3nccnc3c2N(C)S(C)(=O)=O)c2[nH]ccc2n1 [II-1-27]
≤ 50	≤ 50	≤ 50	≤ 50	≤ 50	≤ 50	–	–	–	–	–	–	CCS(=O)(=O)N(C)c1c(Nc2nc(Nc3cc(C)c(N4CCC(N5CCN(C)CC5)CC4)cc3OC)ncc2Cl)ccc2nccnc12 [Compound I-114]
≤ 50	≤ 50	≤ 50	≤ 50	≤ 50	≤ 50	–	–	–	–	–	–	CCc1cc(Nc2ncc(C)c(Nc3ccc4nccnc4c3N(C)S(C)(=O)=O)n2)c(OC)cc1N1CCC(N2CCN(C)CC2)CC1 [Compound I-277]
≤ 50	≤ 50	≤ 50	≤ 50	≤ 50	≤ 50	–	–	–	–	–	–	COc1cc(N2CCC(N(C)C)CC2)c(C)cc1Nc1ncc(Cl)c(Nc2ccc3nccnc3c2N(C)S(C)(=O)=O)n1 [Compound I-169]
